25 compounds from patent publication US9676721B2, “Compounds and compositions for the inhibition of NAMPT” (FORMA TM, LLC, priority 2010, dated 2017) can be followed below.

The structures appear in SMILES notation.

One test has as its system A2780 cells. The test can be described thus: In-Vitro Cell Proliferation Assay (SRB). Format: cell-based. As for the experimental part: In-Vitro Cell Proliferation Assay […] After overnight incubation at 37° C. and 5% CO2, the compound titrations were performed in a separate dilution plate by serially diluting the compounds in DMSO to make a 1000× stock. The compounds were then further diluted to 10× final concentration in culture media, whereupon 20 μL of each dilution was added to the plated cells with controls (e.g. DMSO and blank) to make a final volume of 200 μL. The final DMSO concentration in each well was 0.1%. The plates were then incubated for 72 hours at 37° C. in a 5% CO2 incubator. The number of viable cells was then assessed using sulforhodamine B (SRB) assay. Cells were fixed at 4° C. for 1 hour with the addition of 50 μL 30% trichloroacetic acid (TCA) to make a final concentration of 6% TCA. The plates were washed four times with H2O and allowed to dry for at least 1 hour, whereupon 100 μL of a […] SRB in 1% acetic acid solution was added to each well and incubated at room temperature for at least 30 minutes. The plates were then washed three times with 1% acetic acid, dried, and treated with 100 μL of 10 mM Tris-Base solution. The plates were then read in a microplate reader at an absorbance of 570 nm. Background was generated on a separate plate with media only. Method for Determining % Inhibition First, the signals from the background plate are averaged, then the background was subtracted from the test plates. […] Formula for Determining IC50 Values: […] Specificity of Cytotoxicity. Inhibition of NAMPT could be reversed by the addition of NAM or NMN. The specificity of the compounds were determined via cell viability assay in the presence of the compound and either NAM or NMN. Percent inhibitions were determined using the method given above.

The target in a further test is NAMPT (Homo sapiens (Human), UniProt P43490). The test can be described thus: Biochemical Inhibition Assay (NAMPT enzymatic reaction, NMN by mass spectrometry). As to conditions: recombinant His-tagged NAMPT 33 nM, 1 μM NAM, 30 minutes; read-out: Biochem IC50. The method, then:
Biochemical Inhibition Assay NAMPT Protein Purification Recombinant His-tagged NAMPT was produced in E. coli cells, purified over a Ni column, and further purified over a size-exclusion column by XTAL Biostructures. The NAMPT Enzymatic Reaction The NAMPT enzymatic reactions were carried out in Buffer A (50 mM Hepes pH 7.5, 50 mM NaCl, 5 mM MgCl2, and 1 mM THP) in 96-well V-bottom plates. The compound titrations were performed in a separate dilution plate by serially diluting the compounds in DMSO to make a 100× stock. […] Background and signal strength was determined by addition (or non-addition) of a serial dilution of NMN to a pre-quenched enzyme and cofactor mix. Quantification of NMN A mass spectrometry-based assay was used to measure the NAMPT reaction product (NMN) and the internal control (L-Cystathionine). NMN and L-Cystathionine were detected using the services of Biocius Lifesciences with the RapidFire system. In short, the NMN and L-Cystathionine are bound to a graphitic carbon cartridge in 0.1% formic acid, eluted in 30% acetonitrile buffer, and injected into a Sciex 4000 mass spectrometer. The components of the sample were ionized with electrospray ionization and the positive ions were detected. […] The fragments are quantified and the analyzed by the following method. % Inhibitions are Determined Using this Method. First the NMN signal is normalized to the L-Cystathionine signal by dividing the NMN signal by the L-Cystathionine signal for each well. The signal from the background wells are averaged and subtracted from the test plates. […] IC50s are Determined Using Excel and this Formula.

For orientation: IC50 means the concentration that inhibits the measured activity by half.

NAMPT, sequence (P43490 whole entry): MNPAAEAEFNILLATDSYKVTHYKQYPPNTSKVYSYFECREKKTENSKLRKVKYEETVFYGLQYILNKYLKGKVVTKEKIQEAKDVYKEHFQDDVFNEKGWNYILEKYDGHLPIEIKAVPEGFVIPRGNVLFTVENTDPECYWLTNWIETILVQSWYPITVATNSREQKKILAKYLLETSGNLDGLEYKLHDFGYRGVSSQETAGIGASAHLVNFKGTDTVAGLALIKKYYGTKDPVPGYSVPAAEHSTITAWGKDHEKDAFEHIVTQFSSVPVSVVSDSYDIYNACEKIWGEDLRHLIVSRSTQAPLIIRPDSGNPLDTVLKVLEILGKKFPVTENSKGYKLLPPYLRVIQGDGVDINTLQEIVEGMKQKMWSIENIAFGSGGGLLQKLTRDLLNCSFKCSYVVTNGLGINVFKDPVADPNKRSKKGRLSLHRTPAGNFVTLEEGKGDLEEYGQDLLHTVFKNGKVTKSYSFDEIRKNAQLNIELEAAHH

On to `N#CN=C(NCc1ccc(S(=O)(=O)c2ccnc(N3CCOCC3)c2Cl)cc1)Nc1ccncc1` [1-({4-[3-chloro-2-(morpholin-4-yl)pyridine-4-sulfonyl]phenyl}methyl)-2-cyano-3-(pyridin-4-yl)guanidine], for which the IC50 in the test with A2780 cells (Homo sapiens, A2780, 72 h) amounted to 4.1 nM; on NAMPT, 3.4 nM.

In the case of `COc1ccc(S(=O)(=O)c2ccc(CNC(=NC#N)Nc3ccncc3)cc2)cc1Cl` [1-({4-[(3-chloro-4-methoxybenzene)sulfonyl]phenyl}methyl)-2-cyano-3-(pyridin-4-yl)guanidine], the IC50 in the test with A2780 cells (Homo sapiens, A2780, 72 h) was determined as 4.9 nM; at NAMPT, 2.6 nM.

Regarding `Cc1ccc(S(=O)(=O)c2ccc(CNC(=NC#N)Nc3ccncc3)cc2)cc1Cl` [1-({4-[(3-chloro-4-methylbenzene)sulfonyl]phenyl}methyl)-2-cyano-3-(pyridin-4-yl)guanidine], the half-maximal inhibitory concentration (IC50) was 1.6 nM in the test on A2780 cells (Homo sapiens, A2780, 72 h) and 1.9 nM at NAMPT.

Regarding `CCCOc1ccc(S(=O)(=O)c2ccc(CNC(=NC#N)Nc3ccncc3)cc2)cc1Cl` [1-({4-[(3-chloro-4-propoxybenzene)sulfonyl]phenyl}methyl)-2-cyano-3-(pyridin-4-yl)guanidine], the IC50 in the test with A2780 cells (Homo sapiens, A2780, 72 h) was 5.8 nM; at NAMPT, 4.9 nM.

As for `N#CN=C(NCc1ccc(S(=O)(=O)c2cc(F)cc(Cl)c2)cc1)Nc1ccncc1` [1-({4-[(3-chloro-5-fluorobenzene)sulfonyl]phenyl}methyl)-2-cyano-3-(pyridin-4-yl)guanidine], the IC50 in the test with A2780 cells (Homo sapiens, A2780, 72 h) turned out to be 6.9 nM; on NAMPT it was 5.1 nM.

Turning to `COc1cc(Cl)cc(S(=O)(=O)c2ccc(CNC(=NC#N)Nc3ccncc3)cc2)c1` [1-({4-[(3-chloro-5-methoxybenzene)sulfonyl]phenyl}methyl)-2-cyano-3-(pyridin-4-yl)guanidine], the IC50 was found to be 1.6 nM in the test with A2780 cells (Homo sapiens, A2780, 72 h) and 4.6 nM on NAMPT.

For `Cc1cc(Cl)cc(S(=O)(=O)c2ccc(CNC(=NC#N)Nc3ccncc3)cc2)c1` [1-({4-[(3-chloro-5-methylbenzene)sulfonyl]phenyl}methyl)-2-cyano-3-(pyridin-4-yl)guanidine], the concentration for half-maximal inhibition (IC50) with A2780 cells (Homo sapiens, A2780, 72 h) amounted to 1.6 nM; at NAMPT, 3.3 nM.

As to `CC(=O)c1ccc(S(=O)(=O)c2ccc(CNC(=NC#N)Nc3ccncc3)cc2)cc1` [1-({4-[(4-acetylbenzene)sulfonyl]phenyl}methyl)-2-cyano-3-(pyridin-4-yl)guanidine], the half-maximal inhibitory concentration (IC50) was determined as 7.3 nM in the test on A2780 cells (Homo sapiens, A2780, 72 h) and 5 nM on NAMPT.

In the case of `COc1cc(Cl)ccc1S(=O)(=O)c1ccc(CNC(=NC#N)Nc2ccncc2)cc1` [1-({4-[(4-chloro-2-methoxybenzene)sulfonyl]phenyl}methyl)-2-cyano-3-(pyridin-4-yl)guanidine], the IC50 with A2780 cells (Homo sapiens, A2780, 72 h) turned out to be 1.9 nM; on NAMPT, 3 nM.

On to `N#CN=C(NCc1ccc(S(=O)(=O)c2ccc(Cl)c(F)c2)cc1)Nc1ccncc1` [1-({4-[(4-chloro-3-fluorobenzene)sulfonyl]phenyl}methyl)-2-cyano-3-(pyridin-4-yl)guanidine], for which the IC50 in the test with A2780 cells (Homo sapiens, A2780, 72 h) was 1.9 nM; on NAMPT, 2 nM.

For the compound `N#CN=C(NCc1ccc(S(=O)(=O)c2ccc(Cl)cc2)cc1)Nc1ccncc1` [1-({4-[(4-chlorobenzene)sulfonyl]phenyl}methyl)-2-cyano-3-(pyridin-4-yl)guanidine], the IC50 with A2780 cells (Homo sapiens, A2780, 72 h) was found to be 3.7 nM; at NAMPT it was 3.6 nM.

With `COc1ccc(Cl)cc1S(=O)(=O)c1ccc(CNC(=NC#N)Nc2ccncc2)cc1` [1-({4-[(5-chloro-2-methoxybenzene)sulfonyl]phenyl}methyl)-2-cyano-3-(pyridin-4-yl)guanidine], the IC50 in the test on A2780 cells (Homo sapiens, A2780, 72 h) came to 6.4 nM; on NAMPT it was 5 nM.

Regarding `N#C/N=C(/NCc1cccnc1)Nc1ccc(S(=O)(=O)c2ccccc2)cc1` [1-[4-(benzenesulfonyl)phenyl]-2-cyano-3-(pyridin-3-ylmethyl)guanidine], the IC50 in the test on A2780 cells (Homo sapiens, A2780, 72 h) came to 2710 nM; at NAMPT, 32 nM.

For `N#CN=C(NCc1ccc(S(=O)(=O)c2cc(Cl)cc(C(F)(F)F)c2)cc1)Nc1ccncc1` [1-[(4-{[3-chloro-5-(trifluoromethyl)benzene]sulfonyl}phenyl)methyl]-2-cyano-3-(pyridin-4-yl)guanidine], the IC50 in the test on A2780 cells (Homo sapiens, A2780, 72 h) worked out at 1.6 nM; on NAMPT, 3.3 nM.

Regarding `N#CN=C(NCc1ccc(S(=O)(=O)c2ccc(Cl)c(C(F)(F)F)c2)cc1)Nc1ccncc1` [1-[(4-{[4-chloro-3-(trifluoromethyl)benzene]sulfonyl}phenyl)methyl]-2-cyano-3-(pyridin-4-yl)guanidine], the IC50 in the test on A2780 cells (Homo sapiens, A2780, 72 h) is 1.5 nM; at NAMPT it was 1 nM.

On to `N#C/N=C(\NCCc1ccc(S(=O)(=O)c2ccccc2)cc1)Nc1ccncc1` [1-{2-[4-(benzenesulfonyl)phenyl]ethyl}-2-cyano-3-(pyridin-4-yl)guanidine], for which the IC50 was found to be 5.3 nM in the test with A2780 cells (Homo sapiens, A2780, 72 h) and 1 nM at NAMPT.

In the test with A2780 cells (Homo sapiens, A2780, 72 h), `N#CN=C(NCc1ccc(S(=O)(=O)c2cccc3c2OCO3)cc1)Nc1ccncc1` [1-{[4-(2H-1,3-benzodioxole-4-sulfonyl)phenyl]methyl}-2-cyano-3-(pyridin-4-yl)guanidine] gave a concentration for half-maximal inhibition (IC50) of 9.4 nM.

Take `N#CN=C(NCc1ccc(S(=O)(=O)c2ccc3c(c2)OCO3)cc1)Nc1ccncc1` [1-{[4-(2H-1,3-benzodioxole-5-sulfonyl)phenyl]methyl}-2-cyano-3-(pyridin-4-yl)guanidine]: the IC50 was 3.3 nM in the test with A2780 cells (Homo sapiens, A2780, 72 h) and 1.8 nM at NAMPT.

Consider `N#C/N=C(\NCc1ccc(S(=O)(=O)c2ccccc2)cc1)NCc1ccn2ccnc2c1` [2-cyano-1-(imidazo[1,2-a]pyridin-7-ylmethyl)-3-(4-(phenylsulfonyl)benzyl)guanidine], for which the IC50 with A2780 cells (Homo sapiens, A2780, 72 h) came out at 326 nM; at NAMPT it was 266 nM.

On to `N#CN=C(NCc1ccc(S(=O)(=O)c2ccccc2OC(F)(F)F)cc1)Nc1ccncc1` [2-cyano-1-(pyridin-4-yl)-3-[(4-{[2-(trifluoromethoxy)benzene]sulfonyl}phenyl)methyl]guanidine], for which the IC50 in the test on A2780 cells (72 hours) was 0.6 nM; at NAMPT, 4 nM.

As to `CN(C)c1ncc(S(=O)(=O)c2ccc(CNC(=NC#N)Nc3ccncc3)cc2)cn1` [2-cyano-1-({4-[2-(dimethylamino)pyrimidine-5-sulfonyl]phenyl}methyl)-3-(pyridin-4-yl)guanidine], the half-maximal inhibitory concentration (IC50) in the test on A2780 cells (Homo sapiens, A2780, 72 h) came out at 7 nM; at NAMPT, 8.6 nM.

Consider `N#CN=C(NCc1ccc(S(=O)(=O)c2ccc(N3CCOCC3)nc2)cc1)Nc1ccncc1` [2-cyano-1-({4-[6-(morpholin-4-yl)pyridine-3-sulfonyl]phenyl}methyl)-3-(pyridin-4-yl)guanidine], for which the IC50 in the test with A2780 cells (Homo sapiens, A2780, 72 h) turned out to be 3.3 nM; at NAMPT, 1.9 nM.

With `N#C/N=C(\NCc1ccc(S(=O)(=O)c2ccc(-c3ccccc3)cc2)cc1)Nc1ccncc1` [2-cyano-1-({4-[(4-phenylbenzene)sulfonyl]phenyl}methyl)-3-(p] [2-cyano-1-({4-[(4-phenylbenzene)sulfonyl]phenyl}methyl)-3-(pyridin-4-yl)guanidine], the IC50 on NAMPT was 3.5 nM.

In the test with A2780 cells (Homo sapiens, A2780, 72 h), `N#C/N=C(\NCc1ccc(S(=O)(=O)c2ccc(-c3ccccc3)cc2)cc1)Nc1ccncc1` [2-cyano-1-({4-[(4-phenylbenzene)sulfonyl]phenyl}methyl)-3-(pyridin-4-yl)guanidine] showed a half-inhibitory concentration (IC50) of 6.2 nM.

The compound `N#CN=C(NCc1ccc(S(=O)(=O)c2ccc(-n3cccn3)c(F)c2)cc1)Nc1ccncc1` [2-cyano-1-[(4-{[3-fluoro-4-(1H-pyrazol-1-yl)benzene]sulfonyl}phenyl)methyl]-3-(pyridin-4-yl)guanidine] returned a half-maximal inhibitory concentration (IC50) with A2780 cells (Homo sapiens, A2780, 72 h) of 9.4 nM.
